Measurements as given in US9201173B2, “Polarizer protective film, polarizer, and liquid crystal display device” (FUJIFILM CORPORATION, priority 2010, dated 2015).

Test: Acid dissociation constant by alkali titration
Type: physicochemical
Settings: mixed solvent of tetrahydrofuran/water=6/4 by volume at 25° C.
Experimental: For measurement of the acid dissociation constant in the invention, employed is the alkali titration method described in Experimental Chemistry Course, 2nd Ed., pp. 215-217 (published by Maruzen).
The organic acid A is Tokyo Chemical's 1-benzyl-5-phenylbarbituric acid, and its acid dissociation constant in a mixed solvent of tetrahydrofuran/water=6/4 by volume at 25° C. is 4.0.

With `O=C1NC(=O)N(Cc2ccccc2)C(=O)C1c1ccccc1` (stereo not shown) [organic acid A, 1-benzyl-5-phenylbarbituric acid] the acid dissociation constant was 4.0.
